Among the data in PubChem BioAssay (NCI) are GI50 and TGI values, retold here.

SMILES strings stand for the structures. Values joined by “and” are separate entries in the source; they are usually repeats but may differ in a detail not shown here. Equal values may be shown once.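 48-hour exposure; five concentrations; linearly interpolated endpoints. Here, GI50 denotes the concentration required for 50% inhibition of growth. TGI marks complete inhibition of growth.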

Some test systems named below: RPMI-8226 leukemia; UACC-62 melanoma; NCI-H460 lung; SK-OV-3 ovarian; EKVX NSCLC; K-562 leukemia; SK-MEL-28 melanoma; SW-620 colon; HCT-15 colon; OVCAR-4 ovarian.
Common to all, as to assay: inhibition of tumour cell growth, NCI panel, 48 h

For the molecule `CC1(C)CC(n2cnc(-c3ccc(F)cc3)c2-c2ccnc(N)n2)CC(C)(C)N1`, the GI50 in the experiment with RPMI-8226 leukemia is greater than 25 µM; with UACC-62 melanoma, greater than 25 µM; in the experiment with NCI-H460 lung, 11.9 µM; in the experiment with SK-OV-3 ovarian, 23.6 µM; in the experiment with EKVX NSCLC, greater than 25 µM; in the experiment with K-562 leukemia it was greater than 24.1 µM. In addition, the GI50 in the experiment on SK-MEL-28 melanoma is greater than 25 µM; in the experiment with SW-620 colon, 12.1 µM; in the experiment with HCT-15 colon, 17.7 µM; in the experiment with OVCAR-4 ovarian, 7.54 µM. In addition, the TGI in the experiment with RPMI-8226 leukemia, in the experiment with UACC-62 melanoma, in the experiment on NCI-H460 lung, with SK-OV-3 ovarian, with EKVX NSCLC and with K-562 leukemia was greater than 25 µM each time. In addition, the TGI in the experiment with SK-MEL-28 melanoma, in the experiment with SW-620 colon, with HCT-15 colon and in the experiment with OVCAR-4 ovarian was greater than 25 µM throughout.
Take `c1ccc2c(c1)-c1ccccc1C2N1CC2CCC(CC2)C1`: the TGI in the experiment on RPMI-8226 leukemia is 46 µM; in the experiment on UACC-62 melanoma, 44.5 µM; in the experiment on NCI-H460 lung, 52.2 µM; with SK-OV-3 ovarian, greater than 100 µM; in the experiment on EKVX NSCLC, 51 µM; in the experiment on K-562 leukemia, 36.6 µM. The TGI with SK-MEL-28 melanoma was 96.1 µM; with SW-620 colon, 49.1 µM; in the experiment on HCT-15 colon, 40 µM; with OVCAR-4 ovarian it was greater than 100 µM.
Take `COc1ccc2c(CN3CCC[C@H]3C(=O)O)cc3cc4c(cc3c2c1)OCO4`: the GI50 in the experiment on RPMI-8226 leukemia is 9.87 µM; in the experiment on UACC-62 melanoma, 10.9 µM; with NCI-H460 lung, 14.6 µM; with SK-OV-3 ovarian, 14.6 µM; in the experiment on EKVX NSCLC it was 20.2 µM; in the experiment with K-562 leukemia, 20.2 µM. Moreover, the GI50 in the experiment on SK-MEL-28 melanoma was 15.5 µM; with SW-620 colon, 5.15 µM; in the experiment with HCT-15 colon, 19.1 µM; in the experiment on OVCAR-4 ovarian it was 19.2 µM. In addition, the TGI in the experiment on RPMI-8226 leukemia is 39.3 µM; in the experiment on UACC-62 melanoma, 23.7 µM; with NCI-H460 lung, 88.2 µM; in the experiment with SK-OV-3 ovarian, 51.1 µM; with EKVX NSCLC, 65.7 µM; in the experiment with K-562 leukemia, greater than 100 µM. The TGI in the experiment with SK-MEL-28 melanoma was 36.8 µM; with SW-620 colon, 70.4 µM; with HCT-15 colon it was greater than 100 µM; in the experiment with OVCAR-4 ovarian it was 61.4 µM.
On to `C=C1C(=O)[C@@]23CC1C(O)[C@@H](OC(C)=O)[C@@H]2C1(C)C(OC(C)=O)C[C@@H](OC(C)=O)C(C)(C)[C@@H]1C[C@H]3OC(C)=O` (some centres undefined), for which the GI50 is 1.55 µM and 0.543 µg/mL with RPMI-8226 leukemia; 1.77 µg/mL in the experiment with UACC-62 melanoma; > 10 µM and 7.27 µg/mL with NCI-H460 lung; > 10 µM and 16.5 µg/mL in the experiment on SK-OV-3 ovarian; > 10 µM and 16.8 µg/mL with EKVX NSCLC; 1.55 µM and 0.573 µg/mL in the experiment on K-562 leukemia. In addition, the GI50 is 6.69 µM and 1.67 µg/mL in the experiment on SK-MEL-28 melanoma; 1.7 µM and 1.85 µg/mL in the experiment on SW-620 colon; 2.69 µg/mL in the experiment with HCT-15 colon; > 10 µM and 8.36 µg/mL in the experiment with OVCAR-4 ovarian. The TGI in the experiment on RPMI-8226 leukemia is 4.28 µM and 3.5 µg/mL; in the experiment on UACC-62 melanoma, 3.53 µg/mL; in the experiment on NCI-H460 lung, > 10 µM and 19.4 µg/mL; in the experiment on SK-OV-3 ovarian, > 10 µM and 30.2 µg/mL; with EKVX NSCLC it was > 10 µM and 35.6 µg/mL; in the experiment on K-562 leukemia, 3.71 µM and 2.86 µg/mL. The TGI with SK-MEL-28 melanoma was > 10 µM and 3.46 µg/mL; with SW-620 colon, 3.33 µM and 4.57 µg/mL; in the experiment with HCT-15 colon it was > 10 µM and 8.61 µg/mL; in the experiment on OVCAR-4 ovarian, > 10 µM and 22.1 µg/mL.
For `CN(C)C1CCN(C(=O)c2ccc(NC(=O)Nc3ccc(-c4nc(N5CCOCC5)nc(N5CCOCC5)n4)cc3)cc2)CC1`, the GI50 was 0.0404 µM and 0.0615 µM and 0.0978 µM in the experiment on RPMI-8226 leukemia; 0.0233 µM and 0.0169 µM and 0.0125 µM with UACC-62 melanoma; 0.029 µM and 0.0334 µM and 0.0608 µM with NCI-H460 lung; < 0.01 µM and 0.00732 µM and 0.0204 µM in the experiment on SK-OV-3 ovarian; 0.0158 µM and 0.0203 µM and 0.0404 µM with EKVX NSCLC; 0.13 µM and 0.0357 µM and 0.132 µM in the experiment on K-562 leukemia. Moreover, the GI50 with SK-MEL-28 melanoma was 0.0231 µM and 0.0392 µM and 0.0159 µM; in the experiment on SW-620 colon, 0.0346 µM and 0.0689 µM and 0.03 µM; in the experiment with HCT-15 colon, 3.08 µM and 2.19 µM; in the experiment with OVCAR-4 ovarian it was < 0.01 µM and 0.00776 µM and 0.0127 µM. Further, the TGI is 0.109 µM and 0.121 µM and 0.127 µM in the experiment with UACC-62 melanoma; 0.0485 µM and 0.0434 µM and 0.188 µM with SK-OV-3 ovarian; 0.245 µM and 0.248 µM and 0.144 µM in the experiment on SK-MEL-28 melanoma; greater than 100 µM with HCT-15 colon.
As to `O=P([O-])(O)OP(=O)([O-])O.[NH-][C@@H]1CCCC[C@H]1[NH-].[Pt+4]`, the GI50 was 13.7 µM and 3.16 µM in the experiment with RPMI-8226 leukemia; 9.62 µM and 4.21 µM in the experiment on UACC-62 melanoma; 4.4 µM and 2.33 µM in the experiment on NCI-H460 lung; 98.4 µM and 37.4 µM with SK-OV-3 ovarian; greater than 100 µM in the experiment with EKVX NSCLC; 26.1 µM and 4.09 µM with K-562 leukemia. Further, the GI50 in the experiment on SK-MEL-28 melanoma was 14.1 µM and 5.74 µM; with SW-620 colon, 4.85 µM and 0.659 µM; in the experiment on HCT-15 colon, 11.2 µM and 8.21 µM; with OVCAR-4 ovarian it was > 75.1 µM and 11.2 µM. For the same molecule, the TGI in the experiment on RPMI-8226 leukemia is greater than 100 µM; in the experiment on UACC-62 melanoma, > 100 µM and 33.5 µM; in the experiment with NCI-H460 lung, > 100 µM and 19.5 µM; in the experiment with SK-OV-3 ovarian, greater than 100 µM; in the experiment with EKVX NSCLC, greater than 100 µM; in the experiment with K-562 leukemia, greater than 100 µM. The TGI in the experiment with SK-MEL-28 melanoma is > 100 µM and 61.8 µM; in the experiment on SW-620 colon, greater than 100 µM; with HCT-15 colon, greater than 100 µM; in the experiment with OVCAR-4 ovarian, greater than 100 µM.
